Data on 21 compounds can be found in patent publication US20220402950A1, “SUBSTITUTED BENZIMIDAZOLES AS PAD4 INHIBITORS” (BRISTOL-MYERS SQUIBB COMPANY, priority 2018, published 2022).

Structures are written as SMILES.

This experiment has as its target human PAD4 (hPAD4) (Homo sapiens, UniProt Q9UM07). Kind of experiment: RFMS Human PAD4 Functional Assay. The class given is biochemical. The following applies: hPAD4 RFMS IC50, human PAD4, rapid-fire mass spectrum (RFMS) assay; 5 nM hPAD4, 250 μM BAEE. The procedure, abridged:
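RapidFire ESI-MS quantification, normalised to a modified-citrulline internal standard, after phenyl glyoxal (final 4 mM) derivatisation of the TCA-quenched reaction. The enzyme (10 nM) sat 30 min with compound (up to 50 μM final) before 500 μM BAEE (as added) started a 90 min, 37 °C reaction. Buffer: HEPES pH 7.5, 50 μM calcium, 5 μM TPEN.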

Chain of human PAD4 (hPAD4) (Q9UM07 whole entry): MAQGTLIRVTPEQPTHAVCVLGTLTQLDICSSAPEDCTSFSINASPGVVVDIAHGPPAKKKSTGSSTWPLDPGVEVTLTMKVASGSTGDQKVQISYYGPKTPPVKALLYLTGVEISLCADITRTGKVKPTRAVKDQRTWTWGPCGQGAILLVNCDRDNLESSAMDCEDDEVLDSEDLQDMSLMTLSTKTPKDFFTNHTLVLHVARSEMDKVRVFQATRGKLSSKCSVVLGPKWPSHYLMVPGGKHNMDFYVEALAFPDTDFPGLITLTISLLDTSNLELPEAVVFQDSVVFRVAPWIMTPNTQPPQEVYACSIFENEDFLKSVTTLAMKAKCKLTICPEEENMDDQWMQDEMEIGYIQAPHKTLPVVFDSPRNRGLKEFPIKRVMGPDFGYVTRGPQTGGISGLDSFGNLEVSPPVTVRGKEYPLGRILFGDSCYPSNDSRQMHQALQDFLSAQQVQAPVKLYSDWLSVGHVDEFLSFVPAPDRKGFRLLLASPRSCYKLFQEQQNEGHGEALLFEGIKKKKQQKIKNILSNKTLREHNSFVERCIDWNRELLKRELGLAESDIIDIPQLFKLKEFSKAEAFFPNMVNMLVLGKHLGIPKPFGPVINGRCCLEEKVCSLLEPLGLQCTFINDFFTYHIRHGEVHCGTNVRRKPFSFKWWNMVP

Broadly, the IC50 is the point on the concentration scale where inhibition reaches its midpoint. Higher therefore signals lower potency. As to `COc1cc(C(=O)N2C[C@H](N)C[C@@H](F)C2)cc2nc(-c3cc4cccc(C5CCN(C(C)=O)CC5)c4n3CC3CC3)n(C)c12` [Example 227, 1-(4-(2-(5-((3R,5R)-3-amino-5-fluoropiperidine-1-carbonyl)-7-methoxy-1-methyl-1H-benzo[d]imidazol-2-yl)-1-(cyclopropylmethyl)-1H-indol-7-yl)piperidin-1-yl)ethan-1-one], the IC50 amounted to 77 nM.

`COc1cc(-c2cccc3cc(-c4nc5cc(C(=O)N6C[C@H]7CC[C@@H]6[C@@H]7N)cc(OC)c5n4C)n(CC4CC4)c23)ccc1O` [Example 91, 4-(2-{5-[(1R,4R,7R)-7-amino-2-azabicyclo[2.2.1]heptane-2-carbonyl]-7-methoxy-1-methyl-1H-1,3-benzodiazol-2-yl}-1-(cyclopropylmethyl)-1H-indol-7-yl)-2-methoxyphenol]: the IC50 was found to be 42 nM.

Compound `COc1cc(C(=O)N2C[C@H]3CC[C@@H]2[C@@H]3N)cc2nc(-c3cc4cccc(C5CNC5)c4n3CC3CC3)n(C)c12` [Example 8, (1R,4R,7R)-2-{2-[7-(azetidin-3-yl)-1-(cyclopropylmethyl)-1H-indol-2-yl]-7-methoxy-1-methyl-1H-1,3-benzodiazole-5-carbonyl}-2-azabicyclo[2.2.1]heptan-7-amine] yielded an IC50 of 73 nM.

Turning to `COCC(=O)N1CC(c2cccc3cc(-c4nc5cc(C(=O)N6C[C@H]7CC[C@@H]6[C@@H]7N)cc(OC)c5n4C)n(CC4CC4)c23)C1` [Example 71, 1-[3-(2-{5-[(1R,4R,7R)-7-amino-2-azabicyclo[2.2.1]heptane-2-carbonyl]-7-methoxy-1-methyl-1H-1,3-benzodiazol-2-yl}-1-(cyclopropylmethyl)-1H-indol-7-yl)azetidin-1-yl]-2-methoxyethan-1-one], the midpoint of inhibition, the IC50, lay at 16 nM.

As for `COc1cc(C(=O)N2C[C@H](N)C[C@@H](F)C2)cc2nc(-c3cc4cccc(C5CN(C(C)=O)C5)c4n3C)n(Cc3cnn(C)c3)c12` [Example 215, 1-(3-(2-(5-((3R,5R)-3-amino-5-fluoropiperidine-1-carbonyl)-7-methoxy-1-((1-methyl-1H-pyrazol-4-yl)methyl)-1H-benzo[d]imidazol-2-yl)-1-methyl-1H-indol-7-yl)azetidin-1-yl)ethane-1-one], the midpoint of inhibition, the IC50, lay at 183 nM. Against the preceding compound, the IC50 is about 11-fold higher.

In turn, `COc1cc(C(=O)N2C[C@H]3CC[C@@H]2[C@@H]3N)cc2nc(-c3cc4cccc(C5=CCN(C(C)=O)CC5)c4n3CC3CC3)n(C)c12` [Example 220, 1-(4-(2-(5-((1R,4R,7R)-7-amino-2-azabicyclo[2.2.1]heptane-2-carbonyl)-7-methoxy-1-methyl-1H-benzo[d]imidazol-2-yl)-1-(cyclopropylmethyl)-1H-indol-7-yl)-3,6-dihydropyridin-1(2H)-yl)ethan-1-one] displayed an IC50 of 43 nM.

For `COc1cc(C(=O)N2C[C@H]3CC[C@@H]2[C@@H]3N)cc2nc(-c3cc4cccc(C5CN(C(=O)C(C)(C)C)C5)c4n3CC3CC3)n(C)c12` [Example 67, 1-[3-(2-{5-[(1R,4R,7R)-7-amino-2-azabicyclo[2.2.1]heptane-2-carbonyl]-7-methoxy-1-methyl-1H-1,3-benzodiazol-2-yl}-1-(cyclopropylmethyl)-1H-indol-7-yl)azetidin-1-yl]-2,2-dimethylpropan-1-one], 189 nM corresponded to half-maximal inhibition (IC50).

`COc1cc(C(=O)N2C[C@H]3CC[C@@H]2[C@@H]3N)cc2nc(-c3cc4cccc(C5CN(C(=O)CCO)C5)c4n3CC3CC3)n(C)c12` [Example 80, 1-[3-(2-{5-[(1R,4R,7R)-7-amino-2-azabicyclo[2.2.1]heptane-2-carbonyl]-7-methoxy-1-methyl-1H-1,3-benzodiazol-2-yl}-1-(cyclopropylmethyl)-1H-indol-7-yl)azetidin-1-yl]-3-hydroxypropan-1-one] yielded an IC50 of 16 nM.

For `COc1cc(C(=O)N2C[C@H]3CC[C@@H]2[C@@H]3N)cc2nc(-c3cc4cccc(C5CN(C(C)=O)C5)c4n3CC3CC3)n(Cc3cnn(C)c3)c12` [Example 210, 1-(3-(2-(5-((1R,4R,7R)-7-amino-2-azabicyclo[2.2.1]heptane-2-carbonyl)-7-methoxy-1-((1-methyl-1H-pyrazol-4-yl)methyl)-1H-benzo[d]imidazol-2-yl)-1-(cyclopropylmethyl)-1H-indol-7-yl)azetidin-1-yl)ethan-1-one], the IC50 came out at 18 nM. This IC50 and that of the compound before are within 1.5-fold of each other.

For the compound `COc1cc(C(=O)N2C[C@H]3CC[C@@H]2[C@@H]3N)cc2nc(-c3cc4cccc(-c5cn[nH]c5)c4n3CC3CC3(F)F)n(C)c12` (stereo partly drawn) [Example 150, ((1R,4R,7R)-7-amino-2-azabicyclo[2.2.1]heptan-2-yl)(2-(1-((2,2-difluorocyclopropyl)meth-yl)-7-(1H-pyrazol-4-yl)-1H-indol-2-yl)-7-methoxy-1-methyl-1H-benzo[d]imidazol-5-yl)methanone], half-maximal inhibition (IC50) was put at 46 nM.

As for `COc1cc(C(=O)N2C[C@H]3CC[C@@H]2[C@@H]3N)cc2nc(-c3cc4cccc(C5CC(C(=O)N6CCC6)C5)c4n3CC3CC3)n(C)c12` (single isomer, unassigned; isomer 1) [Example 202], half-maximal inhibition (IC50) required 24 nM.

In turn, `C=CC(=O)Nc1cccc(-c2cccc3cc(-c4nc5cc(C(=O)N6C[C@H]7CC[C@@H]6[C@@H]7N)cc(OC)c5n4C)n(CC4CC4)c23)c1` [Example 88, N-[3-(2-{5-[(1R,4R,7R)-7-amino-2-azabicyclo[2.2.1]heptane-2-carbonyl]-7-methoxy-1-methyl-1H-1,3-benzodiazol-2-yl}-1-(cyclopropylmethyl)-1H-indol-7-yl)phenyl]prop-2-enamide] had an IC50 of 56 nM.

As to `COc1cc(C(=O)N2C[C@H]3CC[C@@H]2[C@@H]3N)cc2nc(-c3cc4cccc(-c5ccc6c(c5)C(O)(C(F)(F)F)C(=O)N6)c4n3CC3CC3)n(C)c12` (stereo partly drawn) [Example 198, 5-(2-(5-((1R,4R,7R)-7-amino-2-azabicyclo[2.2.1]heptane-2-carbonyl)-7-methoxy-1-methyl-1H-benzo[d]imidazol-2-yl)-1-(cyclopropylmethyl)-1H-indol-7-yl)-3-hydroxy-3-(trifluoromethyl)indolin-2-one], the IC50 is 26 nM.

`COc1cc(C(=O)N2C[C@H]3CC[C@@H]2[C@@H]3N)cc2nc(-c3cc4cccc(C5CCNCC5)c4n3CC3CC3)n(C)c12` [Example 4, (1R,4R,7R)-2-{2-[1-(cyclopropylmethyl)-7-(piperidin-4-yl)-1H-indol-2-yl]-7-methoxy-1-methyl-1H-1,3-benzodiazole-5-carbonyl}-2-azabicyclo[2.2.1]heptan-7-amine] gave an IC50 of 30 nM.

As to `COc1cc(C(=O)N2C[C@H]3CC[C@@H]2[C@@H]3N)cc2nc(-c3cc4cccc(C5CCN(C(=O)Nc6ccccc6F)CC5)c4n3CC3CC3)n(C)c12` [Example 243, 4-(2-(5-((1R,4R,7R)-7-amino-2-azabicyclo[2.2.1]heptane-2-carbonyl)-7-methoxy-1-methyl-1H-benzo[d]imidazol-2-yl)-1-(cyclopropylmethyl)-1H-indol-7-yl)-N-(2-fluorophenyl)piperidine-1-carboxamide], the IC50 is 8 nM.

As for `COc1cc(C(=O)N2C[C@H]3CC[C@@H]2[C@@H]3N)cc2nc(-c3cc4cccc(C5CN(C(=O)Cc6cccnc6)C5)c4n3CC3CC3)n(C)c12` [Example 78, 1-[3-(2-{5-[(1R,4R,7R)-7-amino-2-azabicyclo[2.2.1]heptane-2-carbonyl]-7-methoxy-1-methyl-1H-1,3-benzodiazol-2-yl}-1-(cyclopropylmethyl)-1H-indol-7-yl)azetidin-1-yl]-2-(pyridin-3-yl)ethan-1-one], 10 nM corresponded to half-maximal inhibition (IC50).

The compound `COc1cc(C(=O)N2C[C@H]3CC[C@@H]2[C@@H]3N)cc2nc(-c3cc4cccc(C5CN(C(=O)Cc6ccccc6)C5)c4n3CC3CC3)n(C)c12` [Example 72, 1-[3-(2-{5-[(1R,4R,7R)-7-amino-2-azabicyclo[2.2.1]heptane-2-carbonyl]-7-methoxy-1-methyl-1H-1,3-benzodiazol-2-yl}-1-(cyclopropylmethyl)-1H-indol-7-yl)azetidin-1-yl]-2-phenylethan-1-one] came in with an IC50 of 10 nM.

As for `COc1cc(C(=O)N2CC3CCC2[C@@H]3N)cc2nc(-c3cc4cccc(-c5ccc6ccn(C)c6c5)c4n3CC3CC3)n(C)c12` (stereo partly drawn) [Example 126, ((7R)-7-amino-2-azabicyclo[2.2.1]heptan-2-yl)(2-(1′-(cyclopropylmethyl)-1-methyl-1H,1′H-[6,7′-biindol]-2′-yl)-7-methoxy-1-methyl-1H-benzo[d]imidazol-5-yl)methanone], the IC50 is 110 nM. This IC50 is about 11-fold higher than that of the compound before.

`COc1cc(C(=O)N2C[C@H]3CC[C@@H]2[C@@H]3N)cc2nc(-c3cc4cccc(C5COC5)c4n3CC3CC3)n(C)c12` [Example 25, (1R,4R,7R)-2-{2-[1-(cyclopropylmethyl)-7-(oxetan-3-yl)-1H-indol-2-yl]-7-methoxy-1-methyl-1H-1,3-benzodiazole-5-carbonyl}-2-azabicyclo[2.2.1]heptan-7-amine] yielded an IC50 of 63 nM.

In turn, `COc1cc(C(=O)N2C[C@H]3CC[C@@H]2[C@@H]3N)cc2nc(-c3cc4cccc(C5CCOCC5)c4n3CC3CC3)n(C)c12` [Example 3, ((1R,4R,7R)-7-amino-2-azabicyclo[2.2.1]heptan-2-yl)(2-(1-(cyclopropylmethyl)-7-(tetrahydro-2H-pyran-4-yl)-1H-indol-2-yl)-7-methoxy-1-methyl-1H-benzo[d]imidazol-5-yl)methanone] came in with an IC50 of 100 nM.

In the case of `COc1cc(C(=O)N2C[C@H]3CC[C@@H]2[C@@H]3N)cc2nc(-c3cc4cccc(Nc5cnn(CC(F)(F)F)c5)c4n3CC3CC3)n(C)c12` [Example 165, ((1R,4R,7R)-7-amino-2-azabicyclo[2.2.1]heptan-2-yl)(2-(1-(cyclopropylmethyl)-7-((1-(2,2,2-trifluoroethyl)-1H-pyrazol-4-yl)amino)-1H-indol-2-yl)-7-methoxy-1-methyl-1H-benzo[d]imidazol-5-yl)methanone], it took 75 nM to reach half-maximal inhibition (IC50).
